## Nc1nc2ccc(OC(F)(F)F)cc2s1
In 2-methoxyethanol, 278.15 K
  solubility (mole fraction): 0.383
In 2-methoxyethanol, 283.15 K
  solubility (mole fraction): 0.398
In 2-methoxyethanol, 288.15 K
  solubility (mole fraction): 0.405
In 2-methoxyethanol, 293.15 K
  solubility (mole fraction): 0.419
In 2-methoxyethanol, 298.15 K
  solubility (mole fraction): 0.428
In 2-methoxyethanol, 303.15 K
  solubility (mole fraction): 0.436
In 2-methoxyethanol, 308.15 K
  solubility (mole fraction): 0.449
In 2-methoxyethanol, 313.15 K
  solubility (mole fraction): 0.459
In 2-methoxyethanol, 318.15 K
  solubility (mole fraction): 0.469
In 2-methoxyethanol, 323.15 K
  solubility (mole fraction): 0.478
In 2-propoxyethanol, 278.15 K
  solubility (mole fraction): 0.449
In 2-propoxyethanol, 283.15 K
  solubility (mole fraction): 0.461
In 2-propoxyethanol, 288.15 K
  solubility (mole fraction): 0.469
In 2-propoxyethanol, 293.15 K
  solubility (mole fraction): 0.485
In 2-propoxyethanol, 298.15 K
  solubility (mole fraction): 0.496
In 2-propoxyethanol, 303.15 K
  solubility (mole fraction): 0.504
In 2-propoxyethanol, 308.15 K
  solubility (mole fraction): 0.514
In 2-propoxyethanol, 313.15 K
  solubility (mole fraction): 0.521
In 2-propoxyethanol, 318.15 K
  solubility (mole fraction): 0.53
In 2-propoxyethanol, 323.15 K
  solubility (mole fraction): 0.538
In DMAc, 278.15 K
  solubility (mole fraction): 0.0878
In DMAc, 283.15 K
  solubility (mole fraction): 0.0968
In DMAc, 288.15 K
  solubility (mole fraction): 0.106
In DMAc, 293.15 K
  solubility (mole fraction): 0.116
In DMAc, 298.15 K
  solubility (mole fraction): 0.129
In DMAc, 303.15 K
  solubility (mole fraction): 0.142
In DMAc, 308.15 K
  solubility (mole fraction): 0.156
In DMAc, 313.15 K
  solubility (mole fraction): 0.17
In DMAc, 318.15 K
  solubility (mole fraction): 0.188
In DMAc, 323.15 K
  solubility (mole fraction): 0.203
In acetone, 278.15 K
  solubility (mole fraction): 0.371
In acetone, 283.15 K
  solubility (mole fraction): 0.379
In acetone, 288.15 K
  solubility (mole fraction): 0.387
In acetone, 293.15 K
  solubility (mole fraction): 0.401
In acetone, 298.15 K
  solubility (mole fraction): 0.414
In acetone, 303.15 K
  solubility (mole fraction): 0.425
In acetone, 308.15 K
  solubility (mole fraction): 0.437
In acetone, 313.15 K
  solubility (mole fraction): 0.449
In acetone, 318.15 K
  solubility (mole fraction): 0.464
In acetone, 323.15 K
  solubility (mole fraction): 0.477
In acetonitrile, 278.15 K
  solubility (mole fraction): 0.156
In acetonitrile, 283.15 K
  solubility (mole fraction): 0.176
In acetonitrile, 288.15 K
  solubility (mole fraction): 0.197
In acetonitrile, 293.15 K
  solubility (mole fraction): 0.216
In acetonitrile, 298.15 K
  solubility (mole fraction): 0.245
In acetonitrile, 303.15 K
  solubility (mole fraction): 0.267
In acetonitrile, 308.15 K
  solubility (mole fraction): 0.302
In acetonitrile, 313.15 K
  solubility (mole fraction): 0.336
In acetonitrile, 318.15 K
  solubility (mole fraction): 0.365
In acetonitrile, 323.15 K
  solubility (mole fraction): 0.387
In ethanol, 278.15 K
  solubility (mole fraction): 0.179
In ethanol, 283.15 K
  solubility (mole fraction): 0.188
In ethanol, 288.15 K
  solubility (mole fraction): 0.198
In ethanol, 293.15 K
  solubility (mole fraction): 0.212
In ethanol, 298.15 K
  solubility (mole fraction): 0.222
In ethanol, 303.15 K
  solubility (mole fraction): 0.236
In ethanol, 308.15 K
  solubility (mole fraction): 0.254
In ethanol, 313.15 K
  solubility (mole fraction): 0.273
In ethanol, 318.15 K
  solubility (mole fraction): 0.294
In ethanol, 323.15 K
  solubility (mole fraction): 0.308
In isopropyl acetate, 278.15 K
  solubility (mole fraction): 0.331
In isopropyl acetate, 283.15 K
  solubility (mole fraction): 0.341
In isopropyl acetate, 288.15 K
  solubility (mole fraction): 0.351
In isopropyl acetate, 293.15 K
  solubility (mole fraction): 0.361
In isopropyl acetate, 298.15 K
  solubility (mole fraction): 0.376
In isopropyl acetate, 303.15 K
  solubility (mole fraction): 0.386
In isopropyl acetate, 308.15 K
  solubility (mole fraction): 0.395
In isopropyl acetate, 313.15 K
  solubility (mole fraction): 0.411
In isopropyl acetate, 318.15 K
  solubility (mole fraction): 0.43
In isopropyl acetate, 323.15 K
  solubility (mole fraction): 0.443
In n-butanol, 278.15 K
  solubility (mole fraction): 0.185
In n-butanol, 283.15 K
  solubility (mole fraction): 0.197
In n-butanol, 288.15 K
  solubility (mole fraction): 0.207
In n-butanol, 293.15 K
  solubility (mole fraction): 0.221
In n-butanol, 298.15 K
  solubility (mole fraction): 0.236
In n-butanol, 303.15 K
  solubility (mole fraction): 0.254
In n-butanol, 308.15 K
  solubility (mole fraction): 0.268
In n-butanol, 313.15 K
  solubility (mole fraction): 0.288
In n-butanol, 318.15 K
  solubility (mole fraction): 0.313
In n-butanol, 323.15 K
  solubility (mole fraction): 0.337
In n-pentanol, 278.15 K
  solubility (mole fraction): 0.197
In n-pentanol, 283.15 K
  solubility (mole fraction): 0.205
In n-pentanol, 288.15 K
  solubility (mole fraction): 0.216
In n-pentanol, 293.15 K
  solubility (mole fraction): 0.231
In n-pentanol, 298.15 K
  solubility (mole fraction): 0.249
In n-pentanol, 303.15 K
  solubility (mole fraction): 0.264
In n-pentanol, 308.15 K
  solubility (mole fraction): 0.281
In n-pentanol, 313.15 K
  solubility (mole fraction): 0.303
In n-pentanol, 318.15 K
  solubility (mole fraction): 0.325
In n-pentanol, 323.15 K
  solubility (mole fraction): 0.342
In n-pentyl acetate, 278.15 K
  solubility (mole fraction): 0.348
In n-pentyl acetate, 283.15 K
  solubility (mole fraction): 0.356
In n-pentyl acetate, 288.15 K
  solubility (mole fraction): 0.365
In n-pentyl acetate, 293.15 K
  solubility (mole fraction): 0.374
In n-pentyl acetate, 298.15 K
  solubility (mole fraction): 0.385
In n-pentyl acetate, 303.15 K
  solubility (mole fraction): 0.395
In n-pentyl acetate, 308.15 K
  solubility (mole fraction): 0.408
In n-pentyl acetate, 313.15 K
  solubility (mole fraction): 0.425
In n-pentyl acetate, 318.15 K
  solubility (mole fraction): 0.439
In n-pentyl acetate, 323.15 K
  solubility (mole fraction): 0.46
In n-propanol, 278.15 K
  solubility (mole fraction): 0.179
In n-propanol, 283.15 K
  solubility (mole fraction): 0.189
In n-propanol, 288.15 K
  solubility (mole fraction): 0.202
In n-propanol, 293.15 K
  solubility (mole fraction): 0.215
In n-propanol, 298.15 K
  solubility (mole fraction): 0.23
In n-propanol, 303.15 K
  solubility (mole fraction): 0.249
In n-propanol, 308.15 K
  solubility (mole fraction): 0.267
In n-propanol, 313.15 K
  solubility (mole fraction): 0.287
In n-propanol, 318.15 K
  solubility (mole fraction): 0.312
In n-propanol, 323.15 K
  solubility (mole fraction): 0.333
In n-propyl acetate, 278.15 K
  solubility (mole fraction): 0.349
In n-propyl acetate, 283.15 K
  solubility (mole fraction): 0.36
In n-propyl acetate, 288.15 K
  solubility (mole fraction): 0.368
In n-propyl acetate, 293.15 K
  solubility (mole fraction): 0.377
In n-propyl acetate, 298.15 K
  solubility (mole fraction): 0.389
In n-propyl acetate, 303.15 K
  solubility (mole fraction): 0.398
In n-propyl acetate, 308.15 K
  solubility (mole fraction): 0.414
In n-propyl acetate, 313.15 K
  solubility (mole fraction): 0.429
In n-propyl acetate, 318.15 K
  solubility (mole fraction): 0.446
In n-propyl acetate, 323.15 K
  solubility (mole fraction): 0.463
